Laboratory results as given in PMC9468151, “Identification of a binding site on soluble RANKL that can be targeted to inhibit soluble RANK-RANKL interactions and treat osteoporosis” (Nature Communications, 2022).
pKd: −log10 of the molar value. “And” between values parts separate entries of the source, which are not always exact repeats. Identical values can stand only once.

What was measured:
[1] = system: RANKL-induced resorption pits; test: Hydroxyapatite resorption assay; assay type: cell-based, mouse; conditions: for bone resorption / RANKL-induced resorption pits: in words
Procedure: BMMs (1 × 10^5 cells/well) were cultured onto 6-well collagen-coated plates and stimulated with 100 ng/mL sRANKL and 10 ng/mL M-CSF for 3 days to generate early stage of osteoclasts began differentiation. Then early-stage osteoclasts were gently harvested using cell dissociation solution, and seeded into OsteoAssay Surface (hydroxyapatite-coated) 24-well plates. Early-stage osteoclasts were continue incubated in a medium containing sRANKL and M-CSF with or without treatment. After 48 h, wells were bleached to remove cells, followed by image acquisition for the measurement of resorbed areas using a Leica microscope. The percentage of surface resorbed was analyzed using ImageJ software.

[2] = In vitro cytotoxicity assay (MTT); assay type: cell-based, mouse; conditions: mouse, RAW264.7 cells; for viability at 24 h, 0.08 μM: conc. 0.08 μM; for viability at 24 h, 0.08 μM / viability at 24 h, 0.28 μM / viability at 24 h, 0.92 μM / viability at 24 h, 3.03 μM / viability at 24 h, 10 μM: read-out: cell viability relative to 0 μM (fig. S5e); for viability at 24 h, 0.28 μM: conc. 0.28 μM; for viability at 24 h, 0.92 μM: conc. 0.92 μM; for viability at 24 h, 3.03 μM: conc. 3.03 μM; for viability at 24 h, 10 μM: conc. 10 μM; for CC50 at 24 h: RAW264.7, MTT
Outline: (§1)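 Log-phase cells were seeded at 6 × 10^3 per well and incubated 24 h, with viability read by MTT. Growth inhibition (%) was calculated from OD relative to vehicle wells. CC50 came from nonlinear regression curve fitting.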

RAW264.7 cells = test: In vitro cytotoxicity assay (MTT); assay type: cell-based, mouse
Outline: as §1

C3H10T1/2 = C3H10T1/2 proliferation and osteoblastic mineralization; assay type: cell-based, mouse; conditions: C3H10T1/2 or human primary osteoblasts, osteogenic differentiation medium
Procedure: Supplementary Fig.5. In Vitro Activity Evaluation and Signal Pathway Study of compound S3-15. a Western blot of PI3K and AKT phosphorylation in RAW264.7 cells treating with or without S315 and sRANKL at different point-in-time. b EC50 curve and representative OC microphotographs of mature osteoclasts apoptosis assay with S3-15. n=3 biological replicates for each concentration. EC50 values were calculated by GraphPad Prism 8 software. c EC50 curve and representative OC microphotographs of mature osteoclasts apoptosis assay with S3, S3-03 and S3-05. n=3 biological replicates for each concentration. EC50 values were calculated by GraphPad Prism […]
pits in dose-dependent manner (mouse BMMs). e Precursor osteoblasts C3H10T12 proliferation-promoting of S3, S3-05 and S3-15. f Osteoblastic mineralization after treatment with S3, S3-05 and S3-15. C3H10T12 cells were cultured in osteoblast induction differentiation medium with or without treatment for 14 days and determinate of calcium deposition in differentiated osteoblasts by Alizarin red staining. Error bars represent ± s.d. n=3. Statistical difference was determined by unpaired two-tailed Student’s t test. Significant difference p value is < 0.05. Scale […]
(1 picture or pasted object on this page, not shown here)

OVX rats = test: Osteoporosis biomarkers determination in rat serum (ELISA); assay type: in vivo; parameters: OCN / RANKL / PINP / CTX-I / Glu-OCN: unit not given here; conditions: for CTX-I / Glu-OCN / OCN / PINP / RANKL: serum, OVX + compound, individual animals
Procedure: Change of rat osteoporosis biomarkers after treating with S3-15 were determined by enzyme-linked immunosorbent assay (ELISA). […] serum biomarkers including CTX-I (C-terminal telopeptide of type I collagen), OC(Osteocalcin), PINP (Procollagen I N-Terminal propeptide), and RANKL(Receptor activator of nuclear factor-κB ligand). Rat blood was collected from aortaventralis after anesthesia, and centrifuged in 14000 × g at 4 °C to get the serum samples. The protein contents of those biomarkers in serum samples were detected according to manufacturer’s instruction (CTX-I and OC, Systems IDS, UK; RANKL, R&D Systems, USA; PINP, USCN Life Science, Inc., China.).

sRANKL = biological target: T1, sRANKL (Rattus norvegicus, UniProt Q9ESE2, D175N); test: Surface plasmon resonance (SPR) assay; assay type: binding; conditions: immobilized sRANKL, 25 °C
T1 construct: (1) sRANKL (rat 159-318 aa); His6-sumo (N, cleaved yes); made in house; host or cells: Escherichia coli BL21 (DE3)
T1 sequence (Q9ESE2 159-318 D175N): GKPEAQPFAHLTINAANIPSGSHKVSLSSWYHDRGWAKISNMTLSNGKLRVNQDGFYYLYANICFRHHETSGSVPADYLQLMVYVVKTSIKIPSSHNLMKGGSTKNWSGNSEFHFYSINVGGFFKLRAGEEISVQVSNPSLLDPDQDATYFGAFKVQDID
Procedure: A ProteOn XPR36TM SPR instrument (BioRad Hercules, CA) was used for carrying out SPR assays. sRANKL protein in PBS buffer, pH 7.4, was diluted to 20 nM in 10 mM sodium acetate buffer, pH 5.5 and immobilized in parallelflow channels of a the EDAC/Sulfo-NHS activated surface of a GLH biosensor chip (Bio-Rad) with an amine coupling kit (Bio-Rad). The surface was blocked with 1 M ethanolamine. The final immobilization level for sRANKL was approximately 14,000 RU. A blank immobilization channel in the same GLH biosensor chip was also activated with EDAC/Sulfo-NHS and blocked with 1 M ethanolamine to use as a reference.
Biosensor binding experiments were conducted in filtered and degassed running buffer (PBS containing 0.005% Tween-20, pH 7.4) at 25 °C. Compounds was dissolved in 100% DMSO in appropriate different series concentrations of stock solutions. Before detecting, compounds were diluted in six or five concentrations with running buffer and ensured that the content of DMSO contained in each detected concentration was consistent. Compounds in different concentrations were injected simultaneously at a flow rate at […] for 180 s and 120 s for the association phase, followed by 180 s for the disassociation. Following the compound injection, the chip surface was regenerated with 40 s pulses of 0.85% H3PO4 and running buffer.
ProtedOn Manager 2.0. was used for data analysis. Each set of sensorgrams was globally analyzed using the 1:1 Langmuir binding model to obtain the kinetic rate constants (Kon and Koff). Global kinetic rate constants (ka and kd) were derived for each reaction, and the equilibrium dissociation constant, KD, was calculated using the equation KD = kd/ka.

[3] = OVX rats + S3-15, individual animals

Row | SMILES | bone resorption / RANKL-induced resorption pits [1] | viability at 24 h, 0.08 μM [2] [%] | viability at 24 h, 0.28 μM [2] [%] | viability at 24 h, 0.92 μM [2] [%] | viability at 24 h, 3.03 μM [2] [%] | viability at 24 h, 10 μM [2] [%] | CC50 at 24 h [2] [µM] | cell viability relative to 0 μM (fig. S5e) (RAW264.7 cells; conc. 0.08 μM) | cell viability relative to 0 μM (fig. S5e) (RAW264.7 cells; conc. 0.28 μM) | cell viability relative to 0 μM (fig. S5e) (RAW264.7 cells; conc. 0.92 μM) | cell viability relative to 0 μM (fig. S5e) (RAW264.7 cells; conc. 3.03 μM) | cell viability relative to 0 μM (fig. S5e) (RAW264.7 cells; conc. 10 μM) | cell proliferation and mineralization (C3H10T1/2) | CTX-I (OVX rats) | Glu-OCN (OVX rats) | OCN (OVX rats) | PINP (OVX rats) | RANKL (OVX rats) | pKd (sRANKL) | further results
1 | CCOC(=O)c1sc(NC(=O)/C(=N/Nc2ccccc2C(=O)O)C(C)=O)nc1C [S3, (E)-2-(2-(1-((5-(ethoxycarbonyl)-4-methylthiazol-2-yl)amino)-1,3-dioxobutan-2-ylidene) hydrazinyl) benzoic acid] | suppresses RANKL-induced resorption | 105 | 107 | 111 | 121 | 120 | 44.6 | 118.628 and 117.348 | 120.489 and 117.697 | 125.722 and 127.234 | 128.164 and 131.886 | 130.258 and 129.909 | increase cell proliferation and mineralization | 21.3236 and 22.8572 and 16.6793 and 10.172 and 21.7818 and 24.1752 and 24.2142 and 25.7828 | 19.4432 and 20.3365 and 14.3331 and 16.8798 and 23.559 and 26.5413 and 32.3597 and 27.0763 | 79.4709 and 101.933 and 71.1854 and 74.676 and 124.633 and 154.593 and 174.247 and 198.288 | 3388.13 and 10860 and 11369.2 and 5541.99 and 4144.03 and 7092.56 and 5050.08 and 5955.78 | 139.364 and 152.091 and 195.727 and 181.182 and 193.909 and 213.909 and 163 and 128.454 | 4.46 | –
2 | CCOC(=O)c1sc(NC(=O)/C(=N/Nc2ccc(O)cc2C(=O)O)C(C)=O)nc1C [S3-05] | suppresses RANKL-induced resorption | 98.4 | 118 | 132 | 127 | 113 | 93.9 | 112.115 and 113.045 | 104.323 and 119.674 | 131.188 and 122 | 125.024 and 127.118 | 125.722 and 115.72 | increase cell proliferation and mineralization | 12.9391 and 9.961 and 23.5145 and 16.5322 and 12.0463 and 14.1264 and 13.0825 and 21.4762 | 23.1879 and 10.5179 and 18.8663 and 21.4957 and 14.7477 and 20.9157 and 18.2902 and 26.5413 | 109.522 and 50.9168 and 121.686 and 154.593 and 50.4316 and 135.849 and 58.7802 and 162.173 | 4703.95 and 10142.4 and 4202.52 and 5828.23 and 7980.56 and 6497.2 and 3099 and 3185.01 | 183 and 172.091 and 217.546 and 201.182 and 228.454 and 173.909 and 175.727 and 170.273 | 4.63 | –
3 | CC(=O)/C(=N\Nc1ccccc1C(=O)O)C(=O)Nc1ccccn1 [S3-15] | attenuated bone resorption in a dose-dependent manner | 107 | – | – | – | 137 | 62.5 | 111.614 and 102.001 | 101.596 and 120.838 and 143.415 | 144.954 and 160.091 and 138.541 | 169.327 and 148.033 and 125.969 | 154.703 and 140.336 | increase cell proliferation and mineralization | – | – | – | – | – | 4.47 | resorption pits area quantification (fig. 6g) ([1]; S3-15 0.1 μM, vehicle 95, 90, 94): 80 and 85 and 76; resorption pits area quantification (fig. 6g) ([1]; S3-15 1 μM): 57 and 64 and 65; resorption pits area quantification (fig. 6g) ([1]; S3-15 10 μM): 34 and 29 and 27; CTX-I, serum (OVX rats; [3]): 19.469 pg/mL and 18.8316 pg/mL and 14.1264 pg/mL and 18.682 pg/mL and 15.0327 pg/mL and 20.1095 pg/mL and 19.8831 pg/mL and 22.3952 pg/mL and 19.2437 pg/mL; Glu-OCN, serum (OVX rats; [3]): 17.0885 pg/mL and 18.9711 pg/mL and 13.9189 pg/mL and 19.8634 pg/mL and 15.7343 pg/mL and 15.8903 pg/mL and 20.547 pg/mL and 20.6523 pg/mL and 22.4466 pg/mL; OCN, serum (OVX rats; [3]): 88.7207 pg/mL and 63.1562 pg/mL and 56.8431 pg/mL and 170.125 pg/mL and 130.12 pg/mL and 70.5071 pg/mL and 180.184 pg/mL and 178.468 pg/mL and 148.784 pg/mL; PINP, serum (OVX rats; [3]): 11904.5 pg/mL and 9058.6 pg/mL and 6938.35 pg/mL and 7805.25 pg/mL and 15755.4 pg/mL and 15266.7 pg/mL and 4261.9 pg/mL and 14338.4 pg/mL and 6837.57 pg/mL; RANKL, serum (OVX rats; [3]): 197.546 pg/mL and 226.636 pg/mL and 184.818 pg/mL and 228.454 pg/mL and 215.727 pg/mL and 223 pg/mL and 210.273 pg/mL
